Reference: ChEMBL document CHEMBL4732090, “Preparation of new 1,3-dibenzyl tetrahydropyridinylidene ammonium salts and their antimicrobial and anticellular activities” (Eur J Med Chem, 2021)

Legend:
Plasmodium falciparum [1] = test: Antiplasmodial activity against Plasmodium falciparum NF54 erythrocytic stages assessed as reduction in [3H]hypoxanthine incorporation measured after 48 hrs by liquid scintillation counting method; type: functional, organism-based
Plasmodium falciparum [2] = test: Antiplasmodial activity against chloroquine and pyrimethamine resistant Plasmodium falciparum K1 strain; type: functional, organism-based
[3] = Selectivity index, ratio of IC50 for rat L6 cells to IC50 for Plasmodium falciparum NF54; type: toxicity; settings: read-out: Ratio IC50
[4] = Selectivity index, ratio of IC50 for rat L6 cells to IC50 for chloroquine and pyrimethamine resistant Plasmodium falciparum K1; type: toxicity; settings: read-out: Ratio IC50
[5] = system: Trypanosoma brucei rhodesiense; test: Trypanocidal activity against Trypanosoma brucei rhodesiense STIB900 incubated for 70 hrs by Alamar blue assay; type: functional, organism-based; settings: STIB900, 70 h
[6] = Selectivity index, ratio of IC50 for rat L6 cells to IC50 for Trypanosoma brucei rhodesiense STIB900; type: toxicity; settings: read-out: Ratio IC50
L6 = test: Cytotoxicity against rat L6 cells after 70 hrs by Alamar blue assay; type: cell-based; settings: L6, 70 h, read-out: IC50
HCT-116 = test: Cytotoxicity against human HCT-116 cells assessed as inhibition of cell growth at 50 uM after 72 hrs by XTT assay relative to control; type: functional
U-251 = test: Cytotoxicity against human U-251 cells assessed as inhibition of cell growth at 50 uM after 72 hrs by XTT assay relative to control; type: functional
Staphylococcus aureus = test: Antibacterial activity against Staphylococcus aureus ATCC 29213 assessed as diameter of inhibition zone at 10 mg/ml by disk diffusion assay; type: functional; settings: read-out: DIZ
[7] = system: Staphylococcus epidermidis; test: Antibacterial activity against Staphylococcus epidermis ATCC 12228 assessed as diameter of inhibition zone at 10 mg/ml by disk diffusion assay; type: functional; settings: read-out: DIZ
Escherichia coli = test: Antibacterial activity against Escherichia coli ATCC 25922 assessed as diameter of inhibition zone at 10 mg/ml by disk diffusion assay; type: functional; settings: read-out: DIZ
Pseudomonas aeruginosa = test: Antibacterial activity against Pseudomonas aeruginosa ATCC 27853 assessed as diameter of inhibition zone at 10 mg/ml by disk diffusion assay; type: functional; settings: read-out: DIZ
Candida albicans = test: Antifungal activity against Candida albicans ATCC 90028 assessed as diameter of inhibition zone at 10 mg/ml by disk diffusion assay; type: functional; settings: read-out: DIZ

Compound	IC50 (Plasmodium falciparum [1]) [nM]	IC50 (Plasmodium falciparum [2]) [nM]	selectivity ratio [3]	selectivity ratio [4]	IC50 [5] [nM]	selectivity ratio [6]	IC50 (L6) [µM]	inhibition at 50 µM (HCT-116) [%]	inhibition at 50 µM (U-251) [%]	zone of inhibition at 10000 µg/mL (Staphylococcus aureus) [mm]	zone of inhibition at 10000 µg/mL [7] [mm]	zone of inhibition at 10000 µg/mL (Escherichia coli) [mm]	zone of inhibition at 10000 µg/mL (Pseudomonas aeruginosa) [mm]	zone of inhibition at 10000 µg/mL (Candida albicans) [mm]
CC1(C)C(Cc2ccc(Cl)cc2)C(=[N+]2CCCC2)C=CN1Cc1ccc(Cl)cc1 (racemic)	1.4	1.6	8980	7860	170	73.9	12.6	100	100	21	34	15	7	20
CC1(C)C(Cc2ccc(Cl)cc2)C(=[N+]2CCCCC2)C=CN1Cc1ccc(Cl)cc1 (racemic)	3.8	0.38	2920	29200	140	79.3	11.1	100	100	22	28	14	7	26
